Test results reported in US20100137449A1, “SUBSTITUTED 1,3-CYCLOPENTADIONE MULTI-TARGET PROTEIN KINASE MODULATORS OF CANCER, ANGIOGENESIS AND THE INFLAMMATORY PATHWAYS ASSOCIATED THEREWITH” (METAPROTEOMICS, LLC, priority 2007, published 2010).

Experiments:
Test in all cases: KinaseProfiler Assay
[1] = target: CK1(y)
[2] = target: DAPK2(h) (Homo sapiens, UniProt Q9UIK4)
[3] = target: FGFR2(N549H)(h) (Homo sapiens, UniProt P21802, N549H)
[4] = target: Hck(h) (Homo sapiens, UniProt P08631)
[5] = target: Lyn(h) (Homo sapiens, UniProt P07948)
Chain of Lyn(h) (P07948 whole entry): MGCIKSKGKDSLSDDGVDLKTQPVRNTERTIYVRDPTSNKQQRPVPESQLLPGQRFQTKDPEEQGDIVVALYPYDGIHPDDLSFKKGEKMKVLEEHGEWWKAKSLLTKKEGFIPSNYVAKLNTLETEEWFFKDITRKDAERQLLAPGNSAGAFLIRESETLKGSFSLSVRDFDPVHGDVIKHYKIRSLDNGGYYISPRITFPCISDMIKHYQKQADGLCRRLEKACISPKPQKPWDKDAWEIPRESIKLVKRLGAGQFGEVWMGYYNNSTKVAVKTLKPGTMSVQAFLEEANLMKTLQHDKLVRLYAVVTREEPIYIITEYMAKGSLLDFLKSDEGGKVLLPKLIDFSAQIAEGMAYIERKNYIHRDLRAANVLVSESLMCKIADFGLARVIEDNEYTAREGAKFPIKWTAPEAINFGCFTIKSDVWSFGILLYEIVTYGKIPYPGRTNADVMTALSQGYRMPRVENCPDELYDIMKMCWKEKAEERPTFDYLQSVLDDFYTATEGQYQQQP

[6] = target: MAPK1(h), ERK1 (Homo sapiens, UniProt P27361)
Chain of MAPK1(h), ERK1 (P27361 whole entry): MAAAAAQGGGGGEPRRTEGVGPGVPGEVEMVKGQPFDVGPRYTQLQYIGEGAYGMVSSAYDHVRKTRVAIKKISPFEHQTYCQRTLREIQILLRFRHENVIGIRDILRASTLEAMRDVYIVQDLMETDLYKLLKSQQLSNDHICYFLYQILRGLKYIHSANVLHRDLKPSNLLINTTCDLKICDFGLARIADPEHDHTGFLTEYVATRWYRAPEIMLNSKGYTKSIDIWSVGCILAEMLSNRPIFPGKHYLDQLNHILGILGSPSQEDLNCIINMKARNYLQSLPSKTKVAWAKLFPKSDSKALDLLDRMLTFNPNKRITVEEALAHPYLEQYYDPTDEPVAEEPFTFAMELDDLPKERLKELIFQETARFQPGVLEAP

[7] = target: MELK(h) (Homo sapiens, UniProt Q14680)
Chain of MELK(h) (Q14680 whole entry): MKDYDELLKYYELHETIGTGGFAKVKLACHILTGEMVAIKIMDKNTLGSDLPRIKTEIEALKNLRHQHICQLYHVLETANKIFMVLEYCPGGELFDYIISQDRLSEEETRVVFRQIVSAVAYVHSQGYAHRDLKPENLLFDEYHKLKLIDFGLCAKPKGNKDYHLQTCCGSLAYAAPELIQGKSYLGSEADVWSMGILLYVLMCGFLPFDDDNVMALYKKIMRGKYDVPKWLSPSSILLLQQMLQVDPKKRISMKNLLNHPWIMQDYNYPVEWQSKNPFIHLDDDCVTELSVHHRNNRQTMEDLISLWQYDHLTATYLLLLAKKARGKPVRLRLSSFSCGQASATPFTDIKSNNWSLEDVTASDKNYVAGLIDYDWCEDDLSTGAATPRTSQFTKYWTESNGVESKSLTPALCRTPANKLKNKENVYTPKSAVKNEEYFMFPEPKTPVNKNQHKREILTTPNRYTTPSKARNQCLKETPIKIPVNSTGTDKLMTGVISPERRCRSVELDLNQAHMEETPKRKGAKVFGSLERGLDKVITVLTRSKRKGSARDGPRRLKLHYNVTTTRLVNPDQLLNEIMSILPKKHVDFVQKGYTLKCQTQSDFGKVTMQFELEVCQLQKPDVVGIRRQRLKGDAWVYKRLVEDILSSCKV

[8] = target: MRCKβ(h) (Homo sapiens, UniProt Q9Y5S2)
[9] = target: T1, NEK2(h) (Homo sapiens, UniProt P51955)
T1 sequence (P51955 1-445): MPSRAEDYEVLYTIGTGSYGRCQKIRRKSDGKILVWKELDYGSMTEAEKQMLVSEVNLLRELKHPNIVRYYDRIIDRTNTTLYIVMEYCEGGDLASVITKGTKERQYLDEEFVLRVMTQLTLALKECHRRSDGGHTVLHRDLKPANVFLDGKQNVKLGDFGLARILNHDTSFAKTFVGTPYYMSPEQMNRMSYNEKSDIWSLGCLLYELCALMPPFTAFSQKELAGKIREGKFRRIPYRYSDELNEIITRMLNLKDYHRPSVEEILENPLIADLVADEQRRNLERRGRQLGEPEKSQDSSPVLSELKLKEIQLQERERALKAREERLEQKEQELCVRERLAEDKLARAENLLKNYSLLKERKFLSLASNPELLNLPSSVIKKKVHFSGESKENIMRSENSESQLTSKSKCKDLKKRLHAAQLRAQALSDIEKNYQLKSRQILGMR

[10] = target: PAR-1Bα(h) (Homo sapiens, UniProt Q7KZI7)
Chain of PAR-1Bα(h) (Q7KZI7 1-725 isoform Q7KZI7-4): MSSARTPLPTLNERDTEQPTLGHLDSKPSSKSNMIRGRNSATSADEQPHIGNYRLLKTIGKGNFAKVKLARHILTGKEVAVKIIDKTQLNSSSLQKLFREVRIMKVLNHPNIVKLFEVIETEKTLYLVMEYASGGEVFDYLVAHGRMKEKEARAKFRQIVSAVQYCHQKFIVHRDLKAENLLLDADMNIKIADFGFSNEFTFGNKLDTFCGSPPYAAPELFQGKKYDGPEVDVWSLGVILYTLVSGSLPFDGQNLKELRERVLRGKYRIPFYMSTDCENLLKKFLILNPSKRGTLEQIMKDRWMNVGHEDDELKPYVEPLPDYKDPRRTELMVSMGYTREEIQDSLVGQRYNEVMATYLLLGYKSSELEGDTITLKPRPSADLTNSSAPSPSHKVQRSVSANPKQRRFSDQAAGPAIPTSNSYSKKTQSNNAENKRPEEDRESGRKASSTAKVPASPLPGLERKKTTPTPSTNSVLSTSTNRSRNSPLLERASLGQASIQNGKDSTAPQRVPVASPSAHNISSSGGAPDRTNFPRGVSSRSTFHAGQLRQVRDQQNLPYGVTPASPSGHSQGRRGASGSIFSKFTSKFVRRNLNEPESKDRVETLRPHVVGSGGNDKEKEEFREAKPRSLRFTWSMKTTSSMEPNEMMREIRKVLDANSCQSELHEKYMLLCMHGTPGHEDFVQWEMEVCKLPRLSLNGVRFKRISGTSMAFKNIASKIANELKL

[11] = target: PDGFRβ(h) (Homo sapiens, UniProt P09619)
[12] = target: T2, PDK1(h) (Homo sapiens, UniProt O15530)
T2 sequence (O15530 1-556): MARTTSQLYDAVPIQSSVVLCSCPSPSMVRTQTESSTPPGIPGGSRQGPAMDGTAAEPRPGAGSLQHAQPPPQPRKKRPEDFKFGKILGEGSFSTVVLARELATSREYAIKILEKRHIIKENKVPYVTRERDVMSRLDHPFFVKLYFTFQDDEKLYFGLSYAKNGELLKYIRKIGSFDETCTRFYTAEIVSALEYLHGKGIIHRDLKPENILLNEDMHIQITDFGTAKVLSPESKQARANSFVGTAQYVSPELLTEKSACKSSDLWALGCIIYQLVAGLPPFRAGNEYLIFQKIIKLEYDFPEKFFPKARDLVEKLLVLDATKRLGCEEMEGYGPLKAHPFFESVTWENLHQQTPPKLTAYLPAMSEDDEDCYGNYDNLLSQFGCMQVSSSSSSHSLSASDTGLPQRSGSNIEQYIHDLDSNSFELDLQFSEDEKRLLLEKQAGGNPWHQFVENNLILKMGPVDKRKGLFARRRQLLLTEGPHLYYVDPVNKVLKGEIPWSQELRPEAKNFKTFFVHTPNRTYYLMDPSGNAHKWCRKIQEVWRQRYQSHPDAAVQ

[13] = target: PTK5(h) (Homo sapiens, UniProt P42685)
Chain of PTK5(h) (P42685 whole entry): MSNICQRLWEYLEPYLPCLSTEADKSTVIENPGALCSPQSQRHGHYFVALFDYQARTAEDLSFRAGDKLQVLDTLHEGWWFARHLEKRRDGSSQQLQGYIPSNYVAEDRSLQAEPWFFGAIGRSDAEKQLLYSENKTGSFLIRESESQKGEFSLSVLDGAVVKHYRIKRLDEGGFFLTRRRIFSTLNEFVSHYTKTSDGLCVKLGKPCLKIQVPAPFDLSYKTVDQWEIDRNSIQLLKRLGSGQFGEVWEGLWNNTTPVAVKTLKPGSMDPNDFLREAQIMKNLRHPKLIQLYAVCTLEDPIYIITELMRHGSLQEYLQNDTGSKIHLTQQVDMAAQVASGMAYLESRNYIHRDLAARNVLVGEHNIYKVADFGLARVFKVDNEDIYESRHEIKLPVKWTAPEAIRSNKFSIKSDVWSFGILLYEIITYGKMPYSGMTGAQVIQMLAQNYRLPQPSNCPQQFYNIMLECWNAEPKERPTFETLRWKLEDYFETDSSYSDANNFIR

[14] = target: Tie2(Y897S)(h) (Homo sapiens, UniProt Q02763, Y897S)
Chain of Tie2(Y897S)(h) (Q02763 23-1124 Y897S): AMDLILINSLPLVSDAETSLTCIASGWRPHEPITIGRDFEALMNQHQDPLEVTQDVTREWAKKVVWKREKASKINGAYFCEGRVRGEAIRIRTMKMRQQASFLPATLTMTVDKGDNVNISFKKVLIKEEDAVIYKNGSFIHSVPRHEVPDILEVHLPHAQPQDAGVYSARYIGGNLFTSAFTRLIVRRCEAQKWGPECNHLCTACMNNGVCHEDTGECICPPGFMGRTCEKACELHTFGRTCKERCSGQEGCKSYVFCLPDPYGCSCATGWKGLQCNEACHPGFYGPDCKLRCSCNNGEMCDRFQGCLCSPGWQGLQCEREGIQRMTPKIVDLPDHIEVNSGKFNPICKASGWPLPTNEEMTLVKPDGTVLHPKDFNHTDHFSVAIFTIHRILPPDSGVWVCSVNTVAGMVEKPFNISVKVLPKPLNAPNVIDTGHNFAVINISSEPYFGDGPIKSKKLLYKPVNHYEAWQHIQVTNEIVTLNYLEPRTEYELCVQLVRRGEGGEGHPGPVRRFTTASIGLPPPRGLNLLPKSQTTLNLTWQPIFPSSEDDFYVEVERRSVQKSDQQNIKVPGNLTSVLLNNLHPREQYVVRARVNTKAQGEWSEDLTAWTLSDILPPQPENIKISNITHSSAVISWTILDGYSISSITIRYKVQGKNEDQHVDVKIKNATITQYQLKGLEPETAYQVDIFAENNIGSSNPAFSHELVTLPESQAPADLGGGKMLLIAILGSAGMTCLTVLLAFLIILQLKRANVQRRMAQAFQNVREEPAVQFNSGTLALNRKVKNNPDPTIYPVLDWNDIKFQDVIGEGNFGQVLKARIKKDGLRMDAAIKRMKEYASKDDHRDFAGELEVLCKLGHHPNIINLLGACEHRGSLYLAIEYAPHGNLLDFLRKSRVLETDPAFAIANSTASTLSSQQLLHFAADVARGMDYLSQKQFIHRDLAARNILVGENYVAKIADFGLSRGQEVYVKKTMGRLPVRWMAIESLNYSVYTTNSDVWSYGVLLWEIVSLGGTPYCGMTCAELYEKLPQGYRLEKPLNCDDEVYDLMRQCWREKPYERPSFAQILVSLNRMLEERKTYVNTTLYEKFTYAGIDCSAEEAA

Chain of FGFR2(N549H)(h) (P21802 22-821 N549H): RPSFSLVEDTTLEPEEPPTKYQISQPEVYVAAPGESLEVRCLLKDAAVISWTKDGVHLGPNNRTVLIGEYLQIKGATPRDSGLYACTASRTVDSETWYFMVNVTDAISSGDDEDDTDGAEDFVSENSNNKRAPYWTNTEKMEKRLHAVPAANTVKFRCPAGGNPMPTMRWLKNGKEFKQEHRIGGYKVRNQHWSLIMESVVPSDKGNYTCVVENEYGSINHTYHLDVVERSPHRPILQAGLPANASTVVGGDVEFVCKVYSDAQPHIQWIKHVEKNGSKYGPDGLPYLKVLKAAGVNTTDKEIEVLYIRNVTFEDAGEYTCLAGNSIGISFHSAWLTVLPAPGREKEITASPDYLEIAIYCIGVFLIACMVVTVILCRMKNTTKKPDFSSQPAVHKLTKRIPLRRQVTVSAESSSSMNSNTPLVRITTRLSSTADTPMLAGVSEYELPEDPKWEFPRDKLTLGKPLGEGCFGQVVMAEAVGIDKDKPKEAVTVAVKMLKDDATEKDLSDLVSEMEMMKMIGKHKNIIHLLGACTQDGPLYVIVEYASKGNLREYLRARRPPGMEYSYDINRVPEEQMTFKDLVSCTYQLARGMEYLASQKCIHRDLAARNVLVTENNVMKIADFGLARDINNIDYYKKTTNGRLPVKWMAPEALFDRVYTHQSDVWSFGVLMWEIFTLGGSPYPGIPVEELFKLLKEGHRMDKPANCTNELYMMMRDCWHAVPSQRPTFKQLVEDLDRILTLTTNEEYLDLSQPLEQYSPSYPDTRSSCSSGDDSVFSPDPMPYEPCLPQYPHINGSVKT
Chain of DAPK2(h) (Q9UIK4 whole entry): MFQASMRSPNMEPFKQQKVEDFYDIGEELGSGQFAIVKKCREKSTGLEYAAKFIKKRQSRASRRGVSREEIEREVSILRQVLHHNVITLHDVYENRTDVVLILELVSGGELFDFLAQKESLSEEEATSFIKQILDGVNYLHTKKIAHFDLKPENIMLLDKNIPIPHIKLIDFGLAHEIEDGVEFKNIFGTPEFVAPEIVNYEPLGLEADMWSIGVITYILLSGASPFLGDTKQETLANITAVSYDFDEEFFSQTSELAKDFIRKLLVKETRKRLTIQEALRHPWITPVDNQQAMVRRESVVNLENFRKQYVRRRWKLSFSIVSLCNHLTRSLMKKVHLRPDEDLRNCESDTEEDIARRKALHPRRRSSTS

**Q.** `CC(C)CCC(=O)[C@]1(O)C(O)=C(C(=O)C(C)C)C(=O)[C@H]1CCC(C)C` [TH2, tetrahydroiso-cohumulone] was tested. Which kinase inhibition ([1]; 25 μg/ml) did it give?
**A.** 110% of control

**Q.** What about the kinase inhibition ([1]; 50 μg/ml) of the same molecule?
**A.** 110% of control

**Q.** And the kinase inhibition ([1]; 100 μg/ml)?
**A.** 100% of control

**Q.** And the kinase inhibition ([2]; 1 μg/ml)?
**A.** 61% of control

**Q.** What about the kinase inhibition ([2]; 5 μg/ml) of the same molecule?
**A.** 56% of control

**Q.** What about the kinase inhibition ([2]; 25 μg/ml) of the same molecule?
**A.** 55% of control

**Q.** And the kinase inhibition ([2]; 50 μg/ml)?
**A.** 52% of control

**Q.** And the kinase inhibition ([2]; 100 μg/ml)?
**A.** 49% of control

**Q.** What about the kinase inhibition ([3]; 1 μg/ml) of the same molecule?
**A.** 110% of control

**Q.** What about the kinase inhibition ([3]; 5 μg/ml) of the same molecule?
**A.** 102% of control

**Q.** And the kinase inhibition ([3]; 25 μg/ml)?
**A.** 103% of control

**Q.** What about the kinase inhibition ([3]; 50 μg/ml) of the same molecule?
**A.** 103% of control

**Q.** What about the kinase inhibition ([3]; 100 μg/ml) of the same molecule?
**A.** 82% of control

**Q.** What about the kinase inhibition ([4]; 1 μg/ml) of the same molecule?
**A.** 103% of control

**Q.** And the kinase inhibition ([4]; 5 μg/ml)?
**A.** 88% of control

**Q.** And the kinase inhibition ([4]; 25 μg/ml)?
**A.** 76% of control

**Q.** What about the kinase inhibition ([4]; 50 μg/ml) of the same molecule?
**A.** 62% of control

**Q.** What about the kinase inhibition ([4]; 100 μg/ml) of the same molecule?
**A.** 42% of control

**Q.** What about the kinase inhibition ([5]; 1 μg/ml) of the same molecule?
**A.** 145% of control

**Q.** What about the kinase inhibition ([5]; 5 μg/ml) of the same molecule?
**A.** 146% of control

**Q.** And the kinase inhibition ([5]; 25 μg/ml)?
**A.** 139% of control

**Q.** What about the kinase inhibition ([5]; 50 μg/ml) of the same molecule?
**A.** 91% of control

**Q.** And the kinase inhibition ([5]; 100 μg/ml)?
**A.** 68% of control

**Q.** And the kinase inhibition ([6]; 1 μg/ml)?
**A.** 93% of control

**Q.** What about the kinase inhibition ([6]; 5 μg/ml) of the same molecule?
**A.** 83% of control

**Q.** What about the kinase inhibition ([6]; 25 μg/ml) of the same molecule?
**A.** 72% of control

**Q.** What about the kinase inhibition ([6]; 50 μg/ml) of the same molecule?
**A.** 75% of control

**Q.** What about the kinase inhibition ([6]; 100 μg/ml) of the same molecule?
**A.** 67% of control

**Q.** And the kinase inhibition ([7]; 1 μg/ml)?
**A.** 116% of control

**Q.** And the kinase inhibition ([7]; 5 μg/ml)?
**A.** 104% of control

**Q.** And the kinase inhibition ([7]; 25 μg/ml)?
**A.** 102% of control

**Q.** And the kinase inhibition ([7]; 50 μg/ml)?
**A.** 98% of control

**Q.** And the kinase inhibition ([7]; 100 μg/ml)?
**A.** 83% of control

**Q.** What about the kinase inhibition ([8]; 1 μg/ml) of the same molecule?
**A.** 110% of control

**Q.** And the kinase inhibition ([8]; 5 μg/ml)?
**A.** 114% of control

**Q.** What about the kinase inhibition ([8]; 25 μg/ml) of the same molecule?
**A.** 109% of control

**Q.** And the kinase inhibition ([8]; 50 μg/ml)?
**A.** 104% of control

**Q.** What about the kinase inhibition ([8]; 100 μg/ml) of the same molecule?
**A.** 99% of control

**Q.** What about the kinase inhibition ([9]; 1 μg/ml) of the same molecule?
**A.** 106% of control

**Q.** What about the kinase inhibition ([9]; 5 μg/ml) of the same molecule?
**A.** 109% of control

**Q.** What about the kinase inhibition ([9]; 25 μg/ml) of the same molecule?
**A.** 105% of control

**Q.** And the kinase inhibition ([9]; 50 μg/ml)?
**A.** 102% of control

**Q.** What about the kinase inhibition ([9]; 100 μg/ml) of the same molecule?
**A.** 72% of control

**Q.** What about the kinase inhibition ([10]; 1 μg/ml) of the same molecule?
**A.** 109% of control

**Q.** And the kinase inhibition ([10]; 5 μg/ml)?
**A.** 113% of control

**Q.** And the kinase inhibition ([10]; 25 μg/ml)?
**A.** 114% of control

**Q.** And the kinase inhibition ([10]; 50 μg/ml)?
**A.** 116% of control

**Q.** And the kinase inhibition ([10]; 100 μg/ml)?
**A.** 88% of control

**Q.** And the kinase inhibition ([11]; 1 μg/ml)?
**A.** 111% of control

**Q.** What about the kinase inhibition ([11]; 5 μg/ml) of the same molecule?
**A.** 110% of control

**Q.** And the kinase inhibition ([11]; 25 μg/ml)?
**A.** 53% of control

**Q.** What about the kinase inhibition ([11]; 50 μg/ml) of the same molecule?
**A.** 50% of control

**Q.** What about the kinase inhibition ([11]; 100 μg/ml) of the same molecule?
**A.** 44% of control

**Q.** And the kinase inhibition ([12]; 1 μg/ml)?
**A.** 122% of control

**Q.** And the kinase inhibition ([12]; 5 μg/ml)?
**A.** 123% of control

**Q.** And the kinase inhibition ([12]; 25 μg/ml)?
**A.** 102% of control

**Q.** And the kinase inhibition ([12]; 50 μg/ml)?
**A.** 87% of control

**Q.** And the kinase inhibition ([12]; 100 μg/ml)?
**A.** 69% of control

**Q.** What about the kinase inhibition ([13]; 1 μg/ml) of the same molecule?
**A.** 116% of control

**Q.** And the kinase inhibition ([13]; 5 μg/ml)?
**A.** 105% of control

**Q.** And the kinase inhibition ([13]; 25 μg/ml)?
**A.** 113% of control

**Q.** What about the kinase inhibition ([13]; 50 μg/ml) of the same molecule?
**A.** 112% of control

**Q.** And the kinase inhibition ([13]; 100 μg/ml)?
**A.** 116% of control

**Q.** And the kinase inhibition ([14]; 1 μg/ml)?
**A.** 82% of control

**Q.** What about the kinase inhibition ([14]; 5 μg/ml) of the same molecule?
**A.** 46% of control

**Q.** What about the kinase inhibition ([14]; 25 μg/ml) of the same molecule?
**A.** 27% of control

**Q.** What about the kinase inhibition ([14]; 50 μg/ml) of the same molecule?
**A.** 35% of control

**Q.** And the kinase inhibition ([14]; 100 μg/ml)?
**A.** 32% of control
